For the assay, the system named is Artemia salina. The experiment in a line: Cytotoxicity against brine shrimp. Format: functional, organism-based.

SMILES strings stand for the structures.

`CC1=NN(c2ccc(Br)cc2Br)C(=O)C1=O` displayed an IC50 of 36 ppm. `CC(=O)NC1=NN(C(C)=O)C2(S1)C(=O)N(c1ccc(Br)cc1Br)N=C2C` (centres undefined) returned an IC50 of 19.5 ppm.

`CC1=NN(c2ccc(Br)cc2Br)C(=O)/C1=N\NC(N)=S` registered an IC50 of 36 ppm.

As to `CC(=O)NNC1=NN(C(C)=O)C2(O1)C(=O)N(c1ccc(Br)cc1Br)N=C2C` (centres undefined), the IC50 turned out to be 20 ppm.

The values are drawn from ChEMBL document CHEMBL3085757, “Pyrazole scaffold: a remarkable tool in the development of anticancer agents” (Eur J Med Chem, 2013).
